Assay results from ChEMBL document CHEMBL3400081, “Exploration of benzamidochromenone derivatives with conformational restrictor as interleukin-5 inhibitors” (Bioorg Med Chem, 2015).

biological target: T1, Interleukin-5 (Mus musculus) (UniProt P04401); assay: Inhibition of mouse IL5-mediated mouse Y16 cell proliferation at 30 uM after 48 hrs by WST1 assay
T1 sequence (whole entry): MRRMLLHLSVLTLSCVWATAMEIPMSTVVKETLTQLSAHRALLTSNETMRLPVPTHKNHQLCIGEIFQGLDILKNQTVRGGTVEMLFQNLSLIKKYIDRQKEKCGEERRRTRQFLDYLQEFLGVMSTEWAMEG

SMILES | inhibition
CC(=O)OCc1c(C2CCCCC2)oc2ccc(NS(=O)(=O)c3ccccc3)cc2c1=O | 5%
CC(=O)OCc1c(-c2ccccc2)oc2ccc(NC(=O)c3cnccn3)cc2c1=O | 15%
O=C(Nc1ccc2oc(-c3ccccc3)c(CO)c(=O)c2c1)c1cnccn1 | 23%
CC(=O)OCc1c(-c2ccccc2)oc2ccc(NC(=O)c3ccccc3)cc2c1=O | 79%
CC(=O)OCc1c(C2CCCCC2)oc2ccc(NC(=O)Nc3ccccc3)cc2c1=O | 25%
O=C(Nc1ccc2oc(-c3ccccc3)c(CO)c(=O)c2c1)C1CCCCC1 | 35%
CC(C)(C)C(=O)OCc1c(C2CCCCC2)oc2ccc(NC(=O)c3ccccc3)cc2c1=O | 5%
O=C(Nc1ccc2oc(C3CCCCC3)c(CO)c(=O)c2c1)C1CCCCC1 | 9%
CC(=O)OCc1c(-c2ccccc2)oc2ccc(NC(=O)C3CCCCC3)cc2c1=O | 75%
CC(=O)OCc1c(C2CCCCC2)oc2ccc(NC(=O)c3ccccc3)cc2c1=O | 95%
CC(=O)OCc1c(-c2ccc(F)cc2)oc2ccc(NC(=O)c3ccccc3)cc2c1=O | 12%
CC(C)C(=O)OCc1c(C2CCCCC2)oc2ccc(NC(=O)c3ccccc3)cc2c1=O | 71%
O=C(Nc1ccc2oc(-c3ccc(F)cc3)c(CO)c(=O)c2c1)c1ccccc1 | 19%
O=C(Nc1ccc2oc(-c3ccccc3)c(CO)c(=O)c2c1)c1ccccc1 | 71%
O=C(Nc1ccc2oc(C3CCCCC3)c(CO)c(=O)c2c1)c1ccccc1 | 90%
CC(=O)OCc1c(C2CCCCC2)oc2ccc(NC(=O)C3CCCCC3)cc2c1=O | 80%
CC(=O)OCc1c(C2CCCCC2)oc2ccc(NCc3ccccc3)cc2c1=O | 78%
